Experimental data published in PMC5980705 (Pediatric blood & cancer, 2018).

Tests used:
[1] = in the combination of dasatinib and crizotinib, administered once daily, children
[2] = cited from earlier work
[3] = Pharmacokinetic studies of crizotinib and dasatinib in patients; type: in vivo, human
p-glycoprotein = details: cited from earlier work
BCRP = details: cited from earlier work
[4] = tested on: ERK (p-ERK/total ERK) in peripheral-blood mononuclear cells; experiment: Total and phosphorylated ERK in PBMC before and 3 hours after dasatinib; type: in vivo, human; details: after dosing of dasatinib, paired samples

SMILES | maximum tolerated dose (MTD) [1] [mg/m^2] | CNS penetration [2] | AUC0→t ([3]; dose 215 mg/m^2, day 1, 8 patients, t=∞, median (range)) | AUC0→t ([3]; dose 215 mg/m^2, day 14, 4 patients, t=24 hours, median (range)) | Tmax ([3]; human, in vivo) [h] | Cmax ([3]; human, in vivo, 165 mg/m2) | Cmax ([3]; human, in vivo, 165 mg/m2, Cmax) [ng/mL] | half-life ([3]; human, in vivo, elimination half-life, crizotinib day 1 of therapy, 25 patients, median, range 9.8 to 34.7) [h] | half-life ([3]; human, in vivo, elimination half-life, crizotinib day 14 of therapy, 19 patients, median, range 8.0 to 36.5) [h] | substrate of p-glycoprotein (p-glycoprotein) | substrate of BCRP (BCRP) | change in ratio of p-ERK/total ERK in PBMC [4] | half-life ([3]; human, in vivo) [h] | AUC0→t ([3]; human, in vivo, 50 mg/m2) | Cmax ([3]; human, in vivo, 50 mg/m2) [ng/mL] | AUC0→t ([3]; human, in vivo, 65 mg/m2) | Cmax ([3]; human, in vivo, 65 mg/m2) [ng/mL] | apparent oral clearance ([3]; human, in vivo, po)
C[C@@H](Oc1cc(-c2cnn(C3CCNCC3)c2)cnc1N)c1c(Cl)ccc(F)c1Cl [Crizotinib] | 215 | minimal and probably inadequate for the treatment of primary CNS cancers | 5,326.3 (2,068.3 to 12,182.9) ng/mL/hr | 3,118.9 (1,693.8 to 4,278.5) ng/mL/hr | 4.1 | 155.5 (55.8 to 324.4) ng/mL | 156 | 13.1 | 12.8 | – | – | – | – | – | – | – | – | –
Cc1nc(Nc2ncc(C(=O)Nc3c(C)cccc3Cl)s2)cc(N2CCN(CCO)CC2)n1 [Dasatinib] | 50 | more limited than initially recognized | – | – | 2.1 | – | – | – | – | substrate of p-glycoprotein | substrate of p-glycoprotein and BCRP | No statistically significant changes | 4.4 | 593.8 (388.1 to 1,521.1) ng/mL/hr | 120 | 863.9 (721.9 to 1,006) ng/mL/hr | 210 | 1,328 mL/min/m^2
